Counter-ions that a name gives are not always drawn. Like-named read-outs stand apart in the source and are kept apart here.
How the values were obtained:
Type in all cases: cell-based
SUDHL5 cells = experiment: Induction of cytotoxicity in SUDHL5 cells (Assay 6); settings: 5 h, CellTiter-Glo, read-out: Cytotox SUDHL5 IC50 (median)
How it was run: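 Following overnight seeding at 37 °C, cells are treated with compound for 5 h, after which CellTiter-Glo reagent is added and luminescence measured following a 15 min room-temperature shake.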

SUDHL10 cells = experiment: Induction of caspase-3/7 activity in SUDHL10 cells (Assay 4)
How it was run: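 Read-out: Caspase-Glo 3/7 luminescence (1 h, 37 °C) after cells, plated overnight, were treated with compounds for 3 h at 37 °C. Signal corrected for cell-free medium background and expressed relative to DMSO control mean.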

HMC-1-8 cells = experiment: Antiproliferation assay HMC-1-8 (Assay 7)
How it was run: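 CTG luminescence readout; cells plated, overnight at 37 °C, then 72 h compound treatment. Time-zero plate read in parallel. IC50 from day 0 and DMSO-normalised signal.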

[1] = read-out: Caspase SUDHL10 EC50 (median); caspase-3/7 induction, 3 h
[2] = 72 h, read-out: Antiproli HMC-1-8 IC50 median, 72 h, CellTiter-Glo
[3] = Homo sapiens, SU-DHL10, 3 h, caspase-3/7 induction, 3 h; read-out: Caspase SUDHL10 EC50 (median)
[4] = 72 h, CellTiter-Glo, read-out: Antiproli HMC-1-8 IC50 median
[5] = caspase-3/7 induction, 3 h; read-out: Caspase SUDHL10 EC50 (median)
[6] = 72 h, CellTiter-Glo; read-out: Antiproli HMC-1-8 IC50 median

Structure (SMILES) | IC50 (SUDHL5 cells) | EC50 (SUDHL10 cells; [1]) | EC50 (SUDHL10 cells; [5]) | IC50 (HMC-1-8 cells; [6]) | further results
CCc1c2c(nn1C)C(C(F)(F)F)OCCCCn1c(C(=O)O)c(CCCOc3cccc4ccccc34)c3ccc(Cl)c-2c31 (single isomer, unassigned; enantiomer 1) [Example 33, (+)-4-chloro-3-ethyl-2-methyl-7-{3-[(naphthalen-1-yl)oxy]propyl}-15-(trifluoromethyl)-2,10,11,12,13,15-hexahydropyrazolo[4′,3′:9,10][1,6]oxazacycloundecino[8,7,6-hi]indole-8-carboxylic Acid—N-ethylethanamine Salt (Enantiomer 1)] | 1100 nM | 4500 nM | – | – | IC50 (HMC-1-8 cells; [2]): 15000 nM
CCc1c2c(nn1C)C(CCC1CCOCC1)OCCCCn1c(C(=O)O)c(CCCOc3cccc4cc(F)ccc34)c3ccc(Cl)c-2c31 (single isomer, unassigned; enantiomer 1) [Example 63, (+)-4-chloro-3-ethyl-7-{3-[(6-fluoronaphthalen-1-yl)oxy]propyl}-2-methyl-15-[2-(oxan-4-yl)ethyl]-2,10,11,12,13,15-hexahydropyrazolo[4′,3′:9,10][1,6]oxazacycloundecino[8,7,6-hi]indole-8-carboxylic Acid—N-ethylethanamine Salt (Enantiomer 1)] | 49 nM | 53 nM | – | – | IC50 (HMC-1-8 cells; read-out: Antiproli HMC-1-8 IC50 median; 72 h, CellTiter-Glo): 351 nM
CCc1c2c(nn1C)C(CCN1CCOCC1)OCCCCn1c(C(=O)O)c(CCCOc3cccc4ccccc34)c3ccc(F)c-2c31 (single isomer, unassigned; enantiomer 1) [Example 11, 3-ethyl-4-fluoro-2-methyl-15-[2-(morpholin-4-yl)ethyl]-7-{3-[(naphthalen-1-yl)oxy]propyl}-2,10,11,12,13,15-hexahydropyrazolo[4′,3′:9,10][1,6]oxazacycloundecino[8,7,6-hi]indole-8-carboxylic Acid—N-ethylethanamine Salt (Enantiomer 1)] | 95 nM | 190 nM | – | – | IC50 (HMC-1-8 cells; [2]): 1030 nM
CCc1c2c(nn1C)C(C(F)(F)F)OCCCCn1c(C(=O)O)c(CCCOc3cccc4ccccc34)c3ccc(Cl)c-2c31 (racemic) [Example 27, (rac)-4-Chloro-3-ethyl-2-methyl-7-{3-[(naphthalen-1-yl)oxy]propyl}-15-(trifluoromethyl)-2,10,11,12,13,15-hexahydropyrazolo[4′,3′:9,10][1,6]oxazacycloundecino[8,7,6-hi]indole-8-carboxylic Acid] | – | – | – | – | IC50 (SUDHL5 cells; Homo sapiens, SU-DHL-5, 5 h): 1900 nM; EC50 (SUDHL10 cells; [3]): 6600 nM; IC50 (HMC-1-8 cells; [4]): 20700 nM
CCc1c2c(nn1C)C(CCC1CCOCC1)OCCCCn1c(C(=O)O)c(CCCOc3cccc4cc(F)ccc34)c3ccc(Cl)c-2c31 (single isomer, unassigned; enantiomer 1) [Example 61, 4-chloro-3-ethyl-7-{3-[(6-fluoronaphthalen-1-yl)oxy]propyl}-2-methyl-15-[2-(oxan-4-yl)ethyl]-2,10,11,12,13,15-hexahydropyrazolo[4′,3′:9,10][1,6]oxazacycloundecino[8,7,6-hi]indole-8-carboxylic Acid (Enantiomer 1)] | 38 nM | – | 23 nM | 186 nM | –
CCc1c2c(nn1C)C(C1CC1)OCCCCn1c(C(=O)O)c(CCCOc3cccc4cc(F)ccc34)c3ccc(Cl)c-2c31 (racemic) [Example 38, (rac)-4-chloro-(15-rac)-cyclopropyl-3-ethyl-7-{3-[(6-fluoronaphthalen-1-yl)oxy]propyl}-2-methyl-2,10,11,12,13,15-hexahydropyrazolo[4′,3′:9,10][1,6]oxazacycloundecino[8,7,6-hi]indole-8-carboxylic Acid] | – | – | – | – | IC50 (SUDHL5 cells; Homo sapiens, SU-DHL-5, 5 h): 1500 nM; EC50 (SUDHL10 cells; [3]): 5300 nM; IC50 (HMC-1-8 cells; [4]): 20300 nM
CCc1c2c(nn1C)C1CCCN1CCCCn1c(C(=O)O)c(CCCOc3cccc4cc(F)ccc34)c3ccc(Cl)c-2c31 (single isomer, unassigned; (+)) [Example 105, (+)-17-chloro-1-ethyl-14-{3-[(6-fluoronaphthalen-1-yl)oxy]propyl}-2-methyl-3b,4,5,6,8,9,10,11-octahydro-2H-pyrazolo[3′,4′:8,9]pyrrolo[1′,2′:6,7][1,6]diazacycloundecino[10,11,1-hi]indole-13-carboxylic Acid] | 370 nM | – | 130 nM | 2660 nM | –
CCc1c2c(nn1C)C(CCC(C)(C)O)OCCCCn1c(C(=O)O)c(CCCOc3cccc4cc(F)ccc34)c3ccc(Cl)c-2c31 (single isomer, unassigned; enantiomer 1) [Example 75, (+)-4-chloro-3-ethyl-7-{3-[(6-fluoronaphthalen-1-yl)oxy]propyl}-15-(3-hydroxy-3-methylbutyl)-2-methyl-2,10,11,12,13,15-hexahydropyrazolo[4′,3′:9,10][1,6]oxazacycloundecino[8,7,6-hi]indole-8-carboxylic Acid—N-ethylethanamine Salt (Enantiomer 1)] | 12 nM | – | 6.6 nM | 159 nM | –
CCc1c2c(nn1C)C(C1CC1)OCCCCn1c(C(=O)O)c(CCCOc3cccc4cc(F)ccc34)c3ccc(Cl)c-2c31 (single isomer, unassigned; enantiomer 1) [Example 39, (+)-4-chloro-15-cyclopropyl-3-ethyl-7-{3-[(6-fluoronaphthalen-1-yl)oxy]propyl}-2-methyl-2,10,11,12,13,15-hexahydropyrazolo[4′,3′:9,10][1,6]oxazacycloundecino[8,7,6-hi]indole-8-carboxylic Acid—N-ethylethanamine Salt (Enantiomer 1)] | 1000 nM | 1500 nM | – | – | IC50 (HMC-1-8 cells; [2]): 12300 nM
CCc1c2c(nn1C)C1CCCCN1CCCCn1c(C(=O)O)c(CCCOc3cccc4ccccc34)c3ccc(Cl)c-2c31 (racemic) [Example 102, (rac)-18-chloro-1-ethyl-2-methyl-15-[3-(1-naphthyloxy)propyl]-2,3b,4,5,6,7,9,10,11,12-decahydropyrazolo[3′,4′:8,9]pyrido[1′,2′:6,7][1,6]diazacycloundecino[10,11,1-hi]indole-14-carboxylic Acid] | – | – | – | – | IC50 (SUDHL5 cells; Homo sapiens, SU-DHL-5, 5 h): 800 nM; EC50 (SUDHL10 cells; [3]): 1000 nM; IC50 (HMC-1-8 cells; [4]): 7470 nM
CCc1c2c(nn1C)C(CCN1CC(F)(F)C1)OCCCCn1c(C(=O)O)c(CCCOc3cccc4cc(F)ccc34)c3ccc(Cl)c-2c31 (single isomer, unassigned; (+)) [Example 78, (+)-4-chloro-15-[2-(3,3-difluoroazetidin-1-yl)ethyl]-3-ethyl-7-{3-[(6-fluoronaphthalen-1-yl)oxy]propyl}-2-methyl-2,10,11,12,13,15-hexahydropyrazolo[4′,3′:9,10][1,6]oxazacycloundecino[8,7,6-hi]indole-8-carboxylic Acid—N-ethylethanamine Salt] | 14 nM | – | 9.9 nM | 563 nM | –

Source: US11440923B2, “Substituted macrocyclic indole derivatives” (Bayer Aktiengesellschaft, priority 2017, dated 2022)
